From PMC4620681 (Bioorganic & medicinal chemistry letters, 2015)

What was measured:
human KOR (hKOR) = human KOR (hKOR) (Homo sapiens, UniProt P41145); conditions: cited from earlier work
hKOR = hKOR (Homo sapiens, UniProt P41145); experiment: biochemical; format: biochemical; conditions: for Emax: read-out: Emax (percentage of maximal response to U50,488H); for Emax at 1 µM: read-out: Emax at 1 μM (percentage of maximal response to U50,488H)
Sequence of hKOR (P41145 whole entry): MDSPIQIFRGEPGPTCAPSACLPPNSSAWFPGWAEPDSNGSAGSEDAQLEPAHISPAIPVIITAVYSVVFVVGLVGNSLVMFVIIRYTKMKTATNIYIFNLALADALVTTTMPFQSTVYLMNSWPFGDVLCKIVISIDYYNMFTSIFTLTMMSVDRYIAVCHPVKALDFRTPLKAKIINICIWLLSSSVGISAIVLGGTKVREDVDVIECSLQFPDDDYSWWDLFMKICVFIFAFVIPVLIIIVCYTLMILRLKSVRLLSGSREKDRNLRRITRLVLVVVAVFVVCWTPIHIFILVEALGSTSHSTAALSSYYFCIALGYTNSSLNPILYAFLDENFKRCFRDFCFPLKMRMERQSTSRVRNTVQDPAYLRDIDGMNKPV

Sequence of human KOR (hKOR) (P41145 whole entry): as above

| Structure (SMILES) | Emax at 1 µM (hKOR) | further results |
| --- | --- | --- |
| COC(=O)[C@@H]1C[C@H](O)C(=O)[C@H]2[C@@]1(C)CC[C@H]1C(=O)O[C@H](c3ccoc3)C[C@]21C [Compound 2, Salvinorin B] |  | affinity to KOR (in words) (human KOR (hKOR)): comparatively much lower affinity; fold lower affinity than its epimer (human KOR (hKOR)): 3 fold |
| COC[C@@]1(C)C[C@@H](C(=O)OC)[C@]2(C)CC[C@H]3C(=O)O[C@H](c4ccoc4)C[C@]3(C)[C@H]2C1=O [Compound 9a, 2-methyl-2-methoxymethyl-salvinorin ether] |  | agonist / antagonist activity at KOR (hKOR): potent full agonist; Emax (hKOR): 123 ± 16% |
| COC[C@@]1(C)C[C@@H](C(=O)OC)[C@]2(C)CC[C@@H]3C(=O)O[C@H](c4ccoc4)C[C@]3(C)[C@H]2C1=O [Compound 9b] |  | Emax (hKOR): 103 ± 16% |
| CC[C@]1(COC)C[C@@H](C(=O)OC)[C@]2(C)CC[C@H]3C(=O)O[C@H](c4ccoc4)C[C@]3(C)[C@H]2C1=O [Compound 10a] | 83% |  |
| CC[C@]1(COC)C[C@@H](C(=O)OC)[C@]2(C)CC[C@@H]3C(=O)O[C@H](c4ccoc4)C[C@]3(C)[C@H]2C1=O [Compound 10b] | 81% |  |
| C=CC[C@]1(COC)C[C@@H](C(=O)OC)[C@]2(C)CC[C@H]3C(=O)O[C@H](c4ccoc4)C[C@]3(C)[C@H]2C1=O [Compound 12a] | 99% |  |
| C=CC[C@]1(COC)C[C@@H](C(=O)OC)[C@]2(C)CC[C@@H]3C(=O)O[C@H](c4ccoc4)C[C@]3(C)[C@H]2C1=O [Compound 12b] | 84% |  |
| COC[C@@]1(CCOCCI)C[C@@H](C(=O)OC)[C@]2(C)CC[C@H]3C(=O)O[C@H](c4ccoc4)C[C@]3(C)[C@H]2C1=O [Compound 14a] | 98% |  |
| COC[C@@]1(CCOCCI)C[C@@H](C(=O)OC)[C@]2(C)CC[C@@H]3C(=O)O[C@H](c4ccoc4)C[C@]3(C)[C@H]2C1=O [Compound 14b] | 85% |  |
